The source of these data is patent EP3569229A1, “PROPHYLACTIC AND/OR THERAPEUTIC AGENT FOR DISEASES ASSOCIATED WITH AMPA RECEPTORS” (Public University Corporation Yokohama City University, priority 2017, dated 2018).

In one assay the test system is WKY rat. The assay is described as follows: Forced swimming test using rat. The assay is classed as in vivo. The following applies: acute administration, intravenous, 30 minutes before test; 1.0 mg/kg; Figs. 8, 9 and 10. As to the method:
In a forced swimming test, AMPA receptor-binding compounds K-2 and K-4 were dissolved in 100% DMSO (Nacalai Tesque, Inc. Japan) so as to have a concentration of 2.1 mM, were diluted with saline immediately before being administered (15% DMSO, 320 µM) and were intravenously administered to the rat with an administered amount of 5 µl/weight (g) such that the administered amount fell within a range of 1 mg/kg to 1.5 mg/kg.
In all animal experiments, the deliberation and the approval of the animal experiment committee in Yokohama City University were received (approval number: F-A-15-051). As rats, adult male Wistar rats which were 6 to 10 weeks old and Wistar Kyoto rats (WKY rats) which were depression model rats (Charles River, Japan) were used. In order to acquire a route for the repeated administration of K-2, a jugular vein cannula indwelling surgery was performed a week before the experiment. The rat was made to fall sleep with isoflurane (DS Pharma Animal Health, Japan), and thereafter while anesthesia was maintained at an isoflurane concentration of 1.5% (air 2 L/minute), the jugular vein cannula indwelling surgery was performed. The skin of the neck was incised about 3 cm such that subcutaneous fat was opened, and thus the jugular vein was exposed. A needle to which a cannula tube was fitted was made to penetrate the jugular vein, then the cannula tube was removed from the needle and the tip of the cannula tube was inserted 2.5 cm into the jugular vein so as to be fixed near the insertion portion with sutures. The opposite side of the cannula tube was exposed to the outside of the body through the back of the rat, a plug was fitted so as to prevent backflow and the opened skin was sutured. After the completion of the surgery, the rat was returned to a home cage.
The forced swimming test was performed in a pre-administration experiment on the day before the administration of the drug, in an acute administration experiment on the first day of the administration of the drug and in a chronic administration experiment on the seventh day of the administration of the drug. […]

Assay [1] concerns AMPA receptors. The assay is described as follows: AMPA receptor binding test (electrophysiological verification, whole-cell recording of AMPA current in acute hippocampal section). Type of assay: cell-based, SD rats. Particulars: pyramidal cell in CA1, compound administered for 15 minutes, Fig. 2. As to the method:
Male SD rats which were 7 to 8 weeks old were used. The rat was decapitated under anesthesia with isoflurane, and an acute brain section which included the hippocampus and whose thickness was 400 µm was produced with a vibratome (VT1000; Leica Camera AG). The section was left in the ACSF at room temperature for 60 minutes, and then an AMPA current was measured by a whole-cell recording method. Under conditions in which the ACSF was refluxed at a rate of 3 ml/minute, only the AMPA current was isolated by administration of picrotoxin and APV. An exciting electrode was placed on a Schaffer fiber, and a recording electrode was placed on a pyramidal cell in CA1. The whole-cell recording was performed with a potential fixed to -80 mV, and a stimulus of 100 microseconds was applied every 30 seconds. The AMPA current in a ground state was recorded for 5 minutes, then K-2 or K-4 was administered for 15 minutes and thereafter the AMPA current was recorded for 30 minutes. When the section was left and when the section was refluxed, the ACSF was saturated with 95% O2/5% CO2 and was then used, and the composition of the ACSF was as follows; 119 mM NaCl, 2.5 mM KCl, 2.5 mM CaCl2, 1.5 mM MgSO4, 26 mM NaHCO3 and 1 mM NaH2PO4. […]

The target in assay [2] is AMPA receptors. The assay is described as follows: AMPA receptor binding test (in vitro autoradiography method). Details: species or system SD rats. The following applies: acute rat brain section including the striatum; [^11C] K-2; Fig. 1. As to the method:
As rats, adult male SD rats (Charles River, Japan) which were […] were used. An acute brain section which included the striatum and whose thickness was 200 µm was produced, was placed on a cell strainer and was left in an oxygenated ACSF (artificial cerebrospinal fluid) for 60 minutes. 12 ml of 100 µM PEPA (ACSF containing 1% DMSO) was adjusted, and [^11C] K-2 was added thereto so as to achieve 20 nM, and the resultant solution was left for 60 minutes. After the reaction, the resultant solution was washed with the ACSF for 10 seconds three times, and was finally washed with distilled water for 10 seconds. The cell strainer was cut out so as to be slightly larger than the brain section after the reaction, and was exposed to an imaging plate for 2 hours. The imaging plate after the exposure was imaged with Typhoon (GE Healthcare Japan) (resolution of 25 pixels).

Each structure is given as a SMILES string.

In general, Kd refers to the constant that tells how readily two partners part at equilibrium. Low values mean tighter binding, high ones weaker binding.

As to `CN(C)C(=O)COc1c(F)cc(SCCN(C)S(=O)(=O)c2ccc(F)cc2)cc1F` [K-26, {4-[2-(4-fluoro-benzenesulfonyl-methyl-amino)-ethylsulfanil]-2,6-difluoro-phenoxy}-N,N-dimethyl-acetamide], in the assay with WKY rat, the immobility time entry is “tendency that the immobility time was lower”. On to `CN(C)C(=O)COc1c(F)cc(SCCN(C)S(=O)(=O)c2ccccc2)cc1F` [K-4, {4-[2-(benzenesulfonyl-methyl-amino)-ethylsulfanil]-2,6-difluoro-phenoxy}-N,N-dimethyl-acetamide], for which the “binding affinity to the AMPA receptors” value with AMPA receptors [1] was “indicated binding affinity”. In the case of `CCN(CC)C(=O)COc1c(F)cc(SCCN(C)S(=O)(=O)c2ccccc2)cc1F` [K-30, {4-[2-(benzenesulfonyl-methyl-amino)-ethylsulfanil]-2,6-difluoro-phenoxy}-N,N-diethyl-acetamide], in the assay on WKY rat, the immobility time result is “tendency that the immobility time was lower”. With `CNC(=O)COc1c(F)cc(SCCN(C)S(=O)(=O)c2ccccc2)cc1F` [K-32, {4-[2-(benzenesulfonyl-methyl-amino)-ethylsulfanil]-2,6-difluoro-phenoxy}-N-methyl-acetamide], the immobility time result in the assay with WKY rat is given as “tendency that the immobility time was lower”. At AMPA receptors [2], `CN(CCSc1cc(F)c(OCC(N)=O)c(F)c1)S(=O)(=O)c1ccccc1` [K-2, {4-[2-(benzenesulfonyl-methyl-amino)-ethylsulfanil]-2,6-difluoro-phenoxy}-acetamide] showed a dissociation constant Kd of 0.0479 µM. In addition, the “binding affinity to the AMPA receptors” value with AMPA receptors [1] was “indicated binding affinity”.
